The target in test [1] is T1, porcine pancreatic α-amylase (Sus scrofa, UniProt P00690).
T1 sequence (P00690 16-511): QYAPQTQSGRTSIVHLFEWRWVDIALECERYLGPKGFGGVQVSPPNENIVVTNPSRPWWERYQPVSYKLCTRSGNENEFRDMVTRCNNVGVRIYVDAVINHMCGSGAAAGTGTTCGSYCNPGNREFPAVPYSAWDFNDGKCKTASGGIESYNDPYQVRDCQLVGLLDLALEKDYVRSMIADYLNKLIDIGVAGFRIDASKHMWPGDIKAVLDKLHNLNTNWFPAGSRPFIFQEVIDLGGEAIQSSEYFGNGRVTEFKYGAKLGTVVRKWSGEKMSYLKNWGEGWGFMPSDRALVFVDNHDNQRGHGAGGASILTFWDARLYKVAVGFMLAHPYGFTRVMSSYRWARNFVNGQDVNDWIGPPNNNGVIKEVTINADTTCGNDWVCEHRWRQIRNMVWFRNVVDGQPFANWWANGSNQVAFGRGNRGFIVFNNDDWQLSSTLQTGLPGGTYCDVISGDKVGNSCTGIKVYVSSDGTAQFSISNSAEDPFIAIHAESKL
In words: starch hydrolysis by α-amylase monitored by isothermal titration calorimetry (ITC). It counts as biochemical. The conditions noted are these: for remaining activity at 100 µM: 100 μM polyphenol; for inhibition mechanism suggested by Kic/Kiu ratios: polyphenol standards. The method, then: The amylase stock solution was diluted each day and stored during the day at 4 °C.
The experiments were conducted using an Affinity ITC LV instrument with a cell volume of 182 μL (TA Instruments, Eschborn, Germany). […] These controls were conducted to determine the optimal injection volume to achieve maximal velocity (vmax) (S11). […] Enzyme kinetic constants were determined at 310 K.
The heat released during starch conversion was continuously monitored, with calculations performed using Microsoft Excel® software. The enzymatic rate (v) is directly proportional to the measured thermal power (eq (1)).(1) v=dP/dt=1/Vcell·ΔRHapp·dQ/dt
The reaction enthalpy ( ΔRHapp ) is determined by integrating the heat peak over its entire duration, divided by the number of substrate molecules converted:(2) ΔRHapp=∫t=0∞dQ/dtdt/nS
(dQ/dt)max [%], ΔRHapp [%] und vmax [%] are calculated in relation to daily control.
The substrate concentration at time t ([S]t) is calculated according to eq (3).(3) [S]t=∫t∞dQ/dtdt/∫0∞dQ/dtdt·[S]t=0
Therefore, the thermogram contains all the required data for calculating inhibition constants. The maximal conversion rate vmax and the Michaelis-Menten constant Km are determined from control experiments conducted in the absence of an inhibitor. In the presence of an inhibitor [I] the apparent values of vmaxapp and Kmapp are obtained. Competitive inhibition (Kic, eq (5)) is due to the formation of an enzyme-inhibitor complex (EI), whereas uncompetitive inhibition (Kiu, eq (5)) occurs when an inhibitor binds to a […]:(5) Kic=vmaxapp/Kmapp·[I]/(vmax/Km)−(vmaxapp/Kmapp)Kiu=vmaxapp·[I]/vmax−vmaxapp
The IC50 value, a key pharmacological metric, is used to compare the potency of inhibitors. […] The conversion rate (v0) was calculated from the thermogram according to eq (1), and subsequently plotted against the […]
A general note: ITC needs no label: the signal is the heat of the interaction.

Test [2] deals with α-amylase. The conditions noted are these: substrate starch, DNS UV/Vis, cited from earlier work; for Ki: read-out: Kic.
Test [3] deals with α-amylase. Also noted: key to Kic [μM] / Kiu [μM] / IC50 [μM]: “–” no inhibition. The conditions noted are these: substrate starch, PAHBAH UV/Vis, cited from earlier work.
Test [4] deals with α-amylase. Also noted: method as in Kaeswurm et al. (2019). The conditions noted are these: substrate GalG2CNP, CNP UV/Vis, ref Kaeswurm et al. (2019), cited from earlier work.
The mark [5] stands for this setting: calculated based on the mass concentration.
[6] abbreviates: 26 nM α-amylase, starch, 310 K, relative to control without inhibitor, read-out: (dQ/dt)max [%].
The mark [7] stands for this setting: relative to control, read-out: vmax [%].
Setting [8] is: calculated based on the mass concentration, read-out: Kic [g/L] (converted).
Setting [9] is: calculated based on the mass concentration, read-out: Kiu [g/L] (converted).
The mark [10] stands for this setting: competitive inhibition constant, substrate starch, ITC, 100 μM polyphenol (EGCG 25 μM), read-out: Kic.
[11] abbreviates: substrate starch, ITC, calculated by eq (6), substrate concentration of 1 M (IC50 equivalent to Kiu), read-out: IC50*.
Where [12] appears, read: uncompetitive inhibition constant, substrate starch, ITC, 100 μM polyphenol (EGCG 25 μM), read-out: Kiu.
Where [13] appears, read: calculated based on the mass concentration, read-out: IC50 [g/L] (converted).

Where two headings read alike, the source gives them in different places.

With `Oc1cc(O)c2c(c1)O[C@H](c1ccc(O)c(O)c1)[C@@H](O)C2` [CAT, (+)-catechin], in test [1] (setting [5]), the “IC50” value was 120 ± 50 µg/mL, the “Kic” value is 0.10 ± 0.06 g/L, the “Kiu” value was 0.14 ± 0.06 g/L and the “α (Kic/Kiu)” value is listed as 0.75 ± 0.40.
Turning to `OC[C@H]1O[C@@H](Oc2cc3c(O)cc(O)cc3[o+]c2-c2ccc(O)c(O)c2)[C@H](O)[C@@H](O)[C@@H]1O` [CYD-3-glc, cyanidin-3-O-glucoside], the results for the remaining activity at 100 µM in test [1] (setting [6]) and in test [1] (setting [7]) were 74 ± 10% and 65 ± 4%, respectively. Further, the “α (Kic/Kiu)” value in test [1] (setting [5]) is recorded as 0.71 ± 0.05. In addition, the Ki was 156 µM in test [1] (setting [8]); 223 µM in test [1] (setting [9]); 143 ± 30 µM in test [1] (setting [10]); 201 ± 34 µM in test [1] (setting [12]); 140 µM on α-amylase [2] (ref Sui et al. (2016)); 390 µM at α-amylase [3] (ref Le et al. (2024), read-out: Kic). Also, the Ki at α-amylase [3] (ref Le et al. (2024), read-out: Kiu) was 210 µM. Further, in test [1], the “inhibition mechanism suggested by Kic/Kiu ratios” value is on record as “preferentially bind to the enzyme”. The inhibition type entry in test [1] (substrate starch, ITC) is recorded as “mixed”. In addition, the IC50 is 200 ± 34 µM in test [1] (setting [11]); 300 µM on α-amylase [2] (ref Akkarachiyasit et al., (2010)); 240 µM at α-amylase [2] (ref Sui et al. (2016)); 340 µM at α-amylase [3] (ref Le et al. (2024)).
Turning to `Oc1cc(O)c2c(c1)O[C@H](c1ccc(O)c(O)c1)[C@H](O)C2` [EC, (−)-epicatechin], the remaining activity at 100 µM in test [1] (setting [6]) turned out to be 82 ± 8%; in test [1] (setting [7]), 78 ± 4%. Also, the “α (Kic/Kiu)” value in test [1] (setting [5]) was 0.74 ± 0.10. The IC50 in test [1] (setting [13]) was 482 µM; in test [1] (setting [11]) it was 385 ± 82 µM. For the same molecule, the Ki in test [1] (setting [8]) was 379 µM; in test [1] (setting [9]), 517 µM; in test [1] (setting [10]) it was 253 ± 47 µM; in test [1] (setting [12]) it was 385 ± 82 µM. In addition, the “inhibition mechanism suggested by Kic/Kiu ratios” value in test [1] is “preferentially bind to the enzyme”.
As for `Oc1cc(O)c2c(c1)O[C@H](c1ccc(O)c(O)c1)[C@H](O)[C@H]2c1c(O)cc(O)c2c1O[C@H](c1ccc(O)c(O)c1)[C@@H](O)C2` [PC B1, procyanidin B1], the figures for the remaining activity at 100 µM in test [1] (setting [6]) and in test [1] (setting [7]) were 66 ± 14% and 66 ± 9%, respectively. Also, the “α (Kic/Kiu)” value in test [1] (setting [5]) was 0.71 ± 0.20. The IC50 was 190 µM in test [1] (setting [13]) and 219 ± 91 µM in test [1] (setting [11]). Also, the Ki is 156 µM in test [1] (setting [8]), 225 µM in test [1] (setting [9]), 155 ± 79 µM in test [1] (setting [10]) and 219 ± 91 µM in test [1] (setting [12]).
Take `Oc1cc(O)c2c(c1)O[C@H](c1ccc(O)c(O)c1)[C@H](O)[C@H]2c1c(O)cc(O)c2c1O[C@H](c1ccc(O)c(O)c1)[C@H](O)C2` [PC B2, procyanidin B2]: in test [1] (100 μM polyphenol (EGCG 25 μM)), the “reversibility of inhibition (from ΔRHapp)” value is given as “irreversible aggregation”. For the same molecule, the results for the remaining activity at 100 µM in test [1] (setting [6]) and in test [1] (setting [7]) were 56 ± 4% and 62 ± 4%, respectively. Besides, the “α (Kic/Kiu)” value in test [1] (setting [5]) is 0.94 ± 0.13. Further, the figures for the IC50 in test [1] (setting [13]) and in test [1] (setting [11]) were 121 µM and 173 ± 26 µM, respectively. The Ki is 121 µM in test [1] (setting [8]), 121 µM in test [1] (setting [9]), 177 ± 39 µM in test [1] (setting [10]) and 173 ± 26 µM in test [1] (setting [12]).
Take `Oc1cc(O)c2c(c1)O[C@H](c1ccc(O)c(O)c1)[C@H](O)[C@H]2c1c(O)cc(O)c2c1O[C@H](c1ccc(O)c(O)c1)[C@H](O)[C@H]2c1c(O)cc(O)c2c1O[C@H](c1ccc(O)c(O)c1)[C@H](O)C2` [PC C1, procyanidin C1]: the “reversibility of inhibition (from ΔRHapp)” value in test [1] (100 μM polyphenol (EGCG 25 μM)) is on record as “irreversible aggregation”. For the same molecule, the remaining activity at 100 µM is 44 ± 4% in test [1] (setting [6]) and 50 ± 4% in test [1] (setting [7]). Moreover, in test [1] (setting [5]), the “α (Kic/Kiu)” value is on record as 0.90 ± 0.12. Further, the values for the IC50 in test [1] (setting [13]) and in test [1] (setting [11]) were 104 µM and 103 ± 16 µM, respectively. Also, the Ki in test [1] (setting [8]) was 92.3 µM; in test [1] (setting [9]), 104 µM; in test [1] (setting [10]), 94 ± 26 µM; in test [1] (setting [12]), 103 ± 16 µM.
`O=C(CCc1ccc(O)cc1)c1c(O)cc(O)cc1O[C@@H]1O[C@H](CO)[C@@H](O)[C@H](O)[C@H]1O` [PHL, phlorizin]: the remaining activity at 100 µM in test [1] (setting [6]) was 83 ± 4%; in test [1] (setting [7]) it was 89 ± 7%. Moreover, in test [1] (setting [5]), the “α (Kic/Kiu)” value is 0.76 ± 0.08. Moreover, the IC50 in test [1] (setting [13]) was 504 µM; in test [1] (setting [11]), 572 ± 145 µM; on α-amylase [4], 391 µM. Moreover, the Ki is 412 µM in test [1] (setting [8]); 573 µM in test [1] (setting [9]); 418 ± 127 µM in test [1] (setting [10]); 573 ± 145 µM in test [1] (setting [12]); 151 µM at α-amylase [4] (read-out: Kic); 391 µM on α-amylase [4] (read-out: Kiu). Also, in test [1] (substrate starch, ITC), the inhibition type result was “mixed”. Besides, the “IC50 [μM]” value at α-amylase [3] (ref Li et al. (2019)) is reported as “–”. The “Kic [μM]” value at α-amylase [3] (ref Li et al. (2019)) is listed as “–”. The “Kiu [μM]” value at α-amylase [3] (ref Li et al. (2019)) is reported as “–”.
Regarding `O=c1c(O[C@@H]2O[C@H](CO)[C@@H](O)[C@H](O)[C@H]2O)c(-c2ccc(O)c(O)c2)oc2cc(O)cc(O)c12` [Q-3-glc, quercetin-3-O-glucoside], the remaining activity at 100 µM turned out to be 72 ± 9% in test [1] (setting [6]) and 63 ± 4% in test [1] (setting [7]). The “α (Kic/Kiu)” value in test [1] (setting [5]) is listed as 0.65 ± 0.07. The IC50 in test [1] (setting [13]) was 151 µM; in test [1] (setting [11]), 178 ± 28 µM. Also, the Ki was 108 µM in test [1] (setting [8]); 172 µM in test [1] (setting [9]); 115 ± 16 µM in test [1] (setting [10]); 179 ± 28 µM in test [1] (setting [12]); 5.35 µM on α-amylase [2] (ref Li et al. (2009)). Besides, in test [1], the “inhibition mechanism suggested by Kic/Kiu ratios” value is “preferentially bind to the enzyme”. The inhibition type result in test [1] (substrate starch, ITC) is “mixed”.
Take `C[C@@H]1O[C@@H](OC[C@H]2O[C@@H](Oc3c(-c4ccc(O)c(O)c4)oc4cc(O)cc(O)c4c3=O)[C@H](O)[C@@H](O)[C@@H]2O)[C@H](O)[C@H](O)[C@H]1O` [rutin, quercetin-3-O-rutinoside]: the values for the remaining activity at 100 µM in test [1] (setting [6]) and in test [1] (setting [7]) were 90 ± 6% and 92 ± 4%, respectively. Moreover, the “α (Kic/Kiu)” value in test [1] (setting [5]) is reported as 0.28 ± 0.12. For the same molecule, the IC50 is 770 µM in test [1] (setting [13]), 1540 ± 855 µM in test [1] (setting [11]) and 1.2 µM on α-amylase [2] (ref Souza Schmidt Gonçalves et al. (2010)). Further, the Ki in test [1] (setting [8]) is 360 µM; in test [1] (setting [9]), 1560 µM; in test [1] (setting [10]), 354 ± 55 µM; in test [1] (setting [12]), 1560 ± 872 µM; on α-amylase [2] (ref Li et al. (2009)) it was 8.96 µM. Further, the “inhibition mechanism suggested by Kic/Kiu ratios” value in test [1] is listed as “preferentially bind to the enzyme”. In addition, in test [1] (substrate starch, ITC), the inhibition type result is reported as “mixed”.

Source of the values: publication PMC12810351, “Structure-effect relationship of phenolic compounds on α-amylase inhibition studied by isothermal titration calorimetry” (Current Research in Food Science, 2025).
